{
  "source": "patent US6444420B2",
  "about": "“Use of GPR30 receptor ligands to mediate neurotrophic action” (The Board of Trustees of the Leland Stanford Junior …, priority 1999, dated 2002)",
  "key": {"[1]": {"tested_on": "mitogen-activated protein (MAP) kinases", "details": "literature, Singh et al. (1999); cited from earlier work"}, "Erk kinases (MAP kinase)": {"tested_on": "Erk kinases (MAP kinase)", "assay": "Erk (MAP kinase) activation by immunoblot of PC12 cell lysates", "format": "cell-based", "details": "serum-starved PC12 cells, 100 nM 17β-estradiol, indicated time intervals", "protocol": "(§1) As in FIG. 2, serum-starved PC12 cells were treated with 100 nM 17β-estraldiol for the indicated time intervals. Cells were-rinsed and lysed in RIPA buffer. Proteins were separated on SDS-PAGE, blotted onto PVDF membrane. The blot was probed for activated Erks (i.e activated MAP kinase) using rabbit IgGs against activated Erk kinases (UBI). The reagents used in these studies were those specified in the original references to methods employed, unless otherwise specified. We used established cell culture methods for growing cells and for examining their morphological responses (Zhou et al. (1994) Proc. Natl. Acad. Sci USA 91(9):3824-3828). To examine gene expression for GPR30 and the classical ERs, standard methods were used to isolate mRNA and to analyze it by Northern blot and by RT-PCR (GIBCO-BRL, Bethesda, Md.). The activity of Rap1 and of Ras were assayed using pull-down assays with fusion proteins that bind specifically to the GTP-bound forms of these proteins, as described (Herrmann et al. (1995) J. Biol. Chem. 270:2901-2905). These fusion proteins were produced essentially as described by these authors. The activity of MAP kinase was determined by immunoblotting cell lysates with antibodies to phosphorylated MAP kinase (Payne et al. (1991) EMBO J. 10(4):885-892). The source of these antibodies was from New England Biolabs, Inc. (Beverley, Mass.)."}, "Ras": {"tested_on": "Ras", "assay": "Ras activation pull-down assay in PC12 cells", "format": "cell-based", "details": "serum-starved PC12 cells, 100 nM 17β-estradiol, indicated time intervals", "procedure": "Serum-starved PC12 cells were treated with 100 nM 17β-estradiol for the indicated time intervals. Activated Ras (A) and Rap1 (B) were precipitated from cell lysates and analyzed as described in the Materials and Methods. […] The activity of Rap1 and of Ras were assayed using pull-down assays with fusion proteins that bind specifically to the GTP-bound forms of these proteins, as described (Herrmann et al. (1995) J. Biol. Chem. 270:2901-2905). These fusion proteins were produced essentially as described by these authors."}, "[2]": {"tested_on": "145 kDa intermediate neurofilament", "assay": "145 kDa intermediate neurofilament expression in PC12 cells (immunoblot)", "format": "cell-based", "details": "serum-free media, 3 days", "from_the_text": "FIG. 5: Induction of the 145 kDa intermediate neurofilament expression by 17β-estradioi in PC12 cells. PC12 cells were maintained in either serum-free media supplemented with either NGF or 17β-estradiol at the indicated concentrations for 3 days. Treated as well as control cells were lysed in RIPA buffer and the lysates were separated on SDS-PAGE, transferred onto PVDF membrane. The blot was probed with specific antibodies against the 145 kDa intermediate neurofilament."}, "PC12 cells": {"tested_on": "PC12 cells", "assay": "PC12 cell differentiation and survival in serum-free media", "format": "cell-based", "details": "serum-free media with 100 nM 17β-estradiol, 6 days", "protocol": "PC12 cells were maintained in either serum-free media (A) or serum-free media supplemented with 100 nM 17β-estradiol (B) for 6 days. Cells were monitored with phase-contrast microscope and typical images were captured using a CCD camera. Differentiated PC12 cells (arrows) can be observed with 17β-estradiol treatment (B), whereas massive cell death occurred in the control (A). The reagents used in these studies were those specified in the original references to methods employed, unless otherwise specified. We used established cell culture methods for growing cells and for examining their morphological responses (Zhou et al. (1994) Proc. Natl. Acad. Sci USA 91(9):3824-3828). To examine gene expression for GPR30 and the classical ERs, standard methods were used to isolate mRNA and to analyze it by Northern blot and by RT-PCR (GIBCO-BRL, Bethesda, Md.). The activity of Rap1 and of Ras were assayed using pull-down assays with fusion proteins that bind specifically to the GTP-bound forms of these proteins, as described (Herrmann et al. (1995) J. Biol. Chem. 270:2901-2905). These fusion proteins were produced essentially as described by these authors. The activity of MAP kinase was determined by immunoblotting cell lysates with antibodies to phosphorylated MAP kinase (Payne et al. (1991) EMBO J. 10(4):885-892). […]"}, "Rap1": {"tested_on": "Rap1", "assay": "Rap1 activation pull-down assay in PC12 cells", "format": "cell-based", "details": "for Effect on Rap1 activation induced by 17β-estradiol: 100 nM 17β-estradiol plus 1 μM tamoxifen", "protocol": "FIGS. 2A, 2B, 2C, 2D: 17β-estradiol elicits Rap1, but not Ras, activation in PC12 cells. Serum-starved PC12 cells were treated with 100 nM 17β-estradiol for the indicated time intervals. Activated Ras (A) and Rap1 (B) were precipitated from cell lysates and analyzed as described in the Materials and Methods. […] Tomaxifen itself has no effect on Rap1 activation in PC12 cells D.\nDrug Screening Assays: These are used to identify GPR30 ligands that bind to and activate the GPR30 receptor. Drug screening identifies agents that enhance GPR30 activity. Of particular interest are screening assays for agents that have a low toxicity for human cells. In vitro or in vivo binding assays can be used to assess the extent to which a compound behaves as a specific ligand. Other assays are available to test for the activation of signaling pathways by ligand binding. One assay based on the finding that GPR30 activation results in the activation of the small GTPase Rap1, and of the other enzymes in the MAP kinase signaling pathway that is activated by Rap1. The assay for evaluating the activation of Rap1 examines the extent to which Rap1 is bound to GTP and employs a method as described by Herrmann et al. (1995) J. Biol. Chem 270:2901-2905. A wide variety of assays are available to assess the activation status of the enzymes downstream from Rap1. These include in vitro kinase assays for B-Raf, MEK, MAP kinase and Rsk (Cowley et al. (1994) Cell 77:841-852; Vossler et al. (1997) Cell 89:73-82). The activation of these proteins and some of their downstream targets (e.g. Elk-1 and CREB) may also be assessed through the use of antibodies to phosphorylated tyrosine or serine or threonine residues, which marks their active state (Payne et al. (1991) EMBO J. 10(4):885-892).\nas §1, with “The” for “As in FIG. 2, serum-starved PC12 cells were treated with 100 nM 17β-estraldiol for the indicated time intervals. Cells were-rinsed and lysed in RIPA buffer. Proteins were separated on SDS-PAGE, blotted onto PVDF membrane. The blot was probed for activated Erks (i.e activated MAP kinase) using rabbit IgGs against activated Erk kinases (UBI). The”"}},
  "note": "“Also recorded” adds a separate entry of the source.",
  "data": [
    {"compound": "17β-estradiol", "values": [
      {"measurement": "Tyrosine phosphorylation/activation of MAP kinases", "setting": "[1]", "value": "elicited rapid tyrosine phosphorylation/activation"}
    ]},
    {"compound": "C[C@]12CC[C@@H]3c4ccc(O)cc4CC[C@H]3[C@@H]1CC[C@@H]2O", "note": "[17β-estradiol]", "values": [
      {"measurement": "Erk / MAP kinase activation (pERK)", "setting": "Erk kinases (MAP kinase)", "value": "induces prolonged Erk activation; also recorded: induced sustained activation"},
      {"measurement": "Ras activation", "setting": "Ras", "value": "no detectable Ras activation and not"},
      {"measurement": "Expression of the 145 kDa intermediate neurofilament protein", "setting": "[2]", "value": "Induction; also recorded: increasing the level of expression"},
      {"measurement": "PC12 cell differentiation (neurite outgrowth)", "setting": "PC12 cells", "value": "induces PC12 cell differentiation; also recorded: induced the outgrowth of long neurites"},
      {"measurement": "PC12 cell survival under serum free culture", "setting": "PC12 cells", "value": "prevented these cells from dying"},
      {"measurement": "Activation of Rap1 during the first 10 minutes of treatment", "setting": "Rap1; PC12 cells, first 10 minutes", "value": "little effect"},
      {"measurement": "Activation of Rap1 at later times", "setting": "Rap1; PC12 cells, later than 10 minutes", "value": "marked effect"},
      {"measurement": "Rap1 activation", "setting": "Rap1; serum-starved PC12 cells, 100 nM 17β-estradiol, indicated time intervals", "value": "induces Rap1 activation; also recorded: activated Rap1"}
    ]},
    {"compound": "C[C@]12CC[C@@H]3c4ccc(O)cc4C[C@@H](CCCCCCCCC[S+]([O-])CCCC(F)(F)C(F)(F)F)[C@H]3[C@@H]1CC[C@@H]2O", "note": "(some centres unmarked) [ICI 182,780]", "values": [
      {"measurement": "Inhibition of estradiol-elicited extracellular signal-regulated protein kinase activation", "setting": "[1]", "value": "not"}
    ]},
    {"compound": "COc1cccc(-c2cc(=O)c3ccccc3o2)c1N", "note": "[PD98059]", "values": [
      {"measurement": "Inhibition of estradiol-elicited extracellular signal-regulated protein kinase activation", "setting": "[1]", "value": "inhibited successfully"}
    ]},
    {"compound": "CC/C(=C(\\c1ccccc1)c1ccc(OCCN(C)C)cc1)c1ccccc1", "note": "[tamoxifen]", "values": [
      {"measurement": "Effect on Rap1 activation induced by 17β-estradiol", "setting": "Rap1; PC12 cells", "value": "blocked the response"},
      {"measurement": "Effect on Rap1 activation induced by 17β-estradiol", "setting": "Rap1; PC12 cells, listed as tomaxifen", "value": "can be blocked"},
      {"measurement": "Rap1 activation by the substance alone", "setting": "Rap1; PC12 cells, tamoxifen alone", "value": "no effect"}
    ]}
  ]
}
